Measurements as given in patent US20260242320A1, “USE OF CANNABIDIOL DERIVATIVE IN PREPARATION OF MEDICAMENT” (priority 2023, published 2026).
Read-outs that look alike come from different tables or passages of the source.

Columns and labels:
[1] = tested on: LPS-induced proinflammatory factor nitric oxide (NO) in immunocompetent BV-2 cells; assay: NO assay: inhibition of LPS-induced NO overproduction in BV-2 cells; assay type: cell-based; conditions: Mus musculus, read-out: Antineuroinflammatory activity (IC50 inhibiting LPS-induced NO)
Experimental: BV-2 cells were seeded at a density of 5×10^4 cells per milliliter in 96-well plates. After 24 h incubation, the media was removed and changed to DMEM without FBS and penicillin-streptomycin. LPS (200 ng/mL) and different concentrations of compounds were added. After 24 h treatment, 100 μL of media was transferred to flat black 96-well micro fluor plates, and then, 10 μL of 0.05 mg/mL 2,3-diaminonaphthalene was added and incubated in the dark for 15 min. 5 μL of NaOH (3 M) was subsequently added to each well to quench the reaction. NO inhibition ratio was analyzed by a SYNERGY H1 Microplate Reader (BioTek Instruments, Carlsbad, CA, USA) with excitation at 360 nm and emission at 430 nm. The fluorescence value of the LPS-treated group was set as 100%.

[2] = tested on: BV-2 cellular viability; assay: Cell viability / cytotoxicity by crystal violet staining; assay type: cell-based; conditions: Mus musculus, BV-2, read-out: Cellular toxicity (IC50 inhibiting BV-2 cellular viability)
Experimental: 100 μL of culture medium were transferred to a black 96-well plate for later use. Following removal of old culture medium, 100 μL of 4% paraformaldehyde was added for fixation. Fixation was performed for 5 minutes. Paraformaldehyde was then removed, and 100 μL of 0.05% crystal violet was added. The resultant mixture was incubated for 15 minutes, after which time crystal violet was removed and the mixture was slowly rinsed with water three times. Next, 150 μL of ethanol was added, and the mixture was incubated for 15 minutes. After incubation, the absorbance was measured at 540 nm using a spectrophotometer. Viability (%)=100× Fluorescence values of the dosing group/Fluorescence values of the blank group.
Cell viability was determined by crystal violet staining. Briefly, BV-2 cells were treated as indicated in the NO assay. The media was removed, and then 4% paraformaldehyde was added to fix the cells for 5 min. Cells were stained with 100 μL 0.05% crystal violet for 15 min and washed with water 2 times. Next, 150 μL of ethanol was added to each well, and the plate was incubated for 15 min at room temperature. Absorbance at 540 nm was measured using a SYNERGY H1 Microplate Reader.

[3] = tested on: morphine-dependent mice; assay: Naloxone-precipitated morphine withdrawal jumps; assay type: in vivo; conditions: 2 μg/kg, 20 μg/kg, 0.2 mg/kg i.p.
Experimental: Mice were intraperitoneally injected with an escalating dose of morphine three times daily for 3 days (5, 20, and 40 mg/kg) to induce addiction. On the fourth day, mice were given morphine (40 mg/kg) or vehicle (5 mL/kg). […] The withdrawal was precipitated by naloxone. Each mouse was placed into a transparent plastic box immediately, and the number of jumps was recorded for 15 min.

[4] = Pharmacokinetic profiles in brain and plasma after oral administration; assay type: in vivo, mice; conditions: male, BALB/c, mouse, 10 mg/kg p.o., read-out: B/P ratio
[5] = tested on: morphine-treated mice; assay: Morphine-induced behavioral sensitization; assay type: in vivo; conditions: 0.2 mg/kg i.p., mice
Experimental: Mice were placed into the test chamber (40×40×40 cm^3) for 60 min to habituate the chamber for three consecutive days. […] Locomotor activity was recorded daily for 60 min after the administration of drugs. Next, all the mice were subjected to a 7-day withdrawal period (days 8-14). Subsequently, mice were given morphine (5 mg/kg, i.p.), and locomotor activity was recorded to determine behavioral sensitization.

[6] = target: T1, CB1 Receptor (Homo sapiens, UniProt P21554); assay: cAMP measurement, forskolin-induced cAMP accumulation, CB1; assay type: cell-based
T1 construct: expressed in transfected cells; host or cells: GloSensor 22-F HEK293 cells
T1 sequence (P21554 whole entry): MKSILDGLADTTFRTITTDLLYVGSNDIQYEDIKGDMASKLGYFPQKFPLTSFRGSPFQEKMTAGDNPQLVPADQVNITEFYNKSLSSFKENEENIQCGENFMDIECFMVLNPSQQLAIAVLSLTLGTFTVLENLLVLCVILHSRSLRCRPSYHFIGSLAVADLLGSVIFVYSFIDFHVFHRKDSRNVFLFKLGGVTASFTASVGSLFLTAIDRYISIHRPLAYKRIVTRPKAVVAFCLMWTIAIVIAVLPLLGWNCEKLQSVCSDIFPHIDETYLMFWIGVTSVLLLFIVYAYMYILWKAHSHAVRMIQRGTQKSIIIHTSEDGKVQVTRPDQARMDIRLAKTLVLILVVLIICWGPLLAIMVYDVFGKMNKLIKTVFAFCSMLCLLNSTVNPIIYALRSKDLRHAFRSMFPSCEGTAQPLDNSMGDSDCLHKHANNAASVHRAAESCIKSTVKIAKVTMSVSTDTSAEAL
Experimental: (§1) GloSensor 22-F HEK293 cells were transfected with plasmids encoding different receptors (CB1 and CB2). After 24 h, HEK293 cells were seeded at a density of 5×10^4 cells per well in 96-well plates and incubated for 8 h; then, the medium was removed, and 200 μL of serum-free DMEM medium containing 2% GloSensor cAMP substrate (Promega) was added. After 2 h incubation, the transfected cells were stimulated with different concentrations of ligands together with […]. The luminescence was recorded using a Multimode Plate Reader (En Vision, PerkinElmer).

[7] = target: T2, CB2 Receptor (Homo sapiens, UniProt P34972); assay: cAMP measurement, forskolin-induced cAMP accumulation, CB2; assay type: cell-based
T2 construct: expressed in transfected cells; host or cells: GloSensor 22-F HEK293 cells
T2 sequence (P34972 whole entry): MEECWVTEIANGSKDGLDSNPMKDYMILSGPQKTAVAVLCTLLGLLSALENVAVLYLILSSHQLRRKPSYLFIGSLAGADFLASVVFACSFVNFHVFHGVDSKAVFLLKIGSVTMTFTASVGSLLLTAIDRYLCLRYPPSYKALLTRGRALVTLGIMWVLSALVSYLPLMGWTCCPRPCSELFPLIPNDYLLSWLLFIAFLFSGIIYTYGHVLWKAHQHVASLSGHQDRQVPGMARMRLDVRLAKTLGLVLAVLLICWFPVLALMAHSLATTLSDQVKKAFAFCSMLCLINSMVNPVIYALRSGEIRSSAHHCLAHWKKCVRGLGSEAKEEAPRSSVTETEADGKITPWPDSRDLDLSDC
Experimental: as §1

[8] = tested on: LPS-induced IL-1β, TNF-α, IL-6, iNOS, IL-10 mRNA in BV-2 cells; assay: qRT-PCR of proinflammatory and M1/M2 marker mRNAs in LPS-treated BV-2 cells; assay type: cell-based; conditions: BV-2 cells
Experimental: Total RNA was extracted from cells or mouse brains using the RNeasy Mini Kit. Isolated RNA was reverse-transcribed into cDNA using an RT2 Easy First Strand cDNA Synthesis Kit following the manufacturer's protocols. PCR amplification was conducted using synthetic primers, SYBR Green, and a TOptical Real-Time qPCR Thermal Cycler (Analytik Jena, Thuringia, Germany). The data were analyzed by the […] method, and Rpl711 or Rpl27 was used as an internal control.

[9] = Pharmacokinetic profiles in brain and plasma after oral administration; assay type: in vivo, mice; conditions: 10 mg/kg p.o.
Experimental: Following administration, mice (BALB/c, male, 20-25 g) were sacrificed at 0.5, 1, 2, 3, and 4 h. The blood and brain tissue were collected and extracted with acetonitrile.

## C=CCOc1cc(CCCCC)cc(O)c1[C@@H]1C=C(C)CC[C@H]1C(=C)C [Compound 4a, (1′R,2′R)-6-(Allyloxy)-5′-methyl-4-pentyl-2′-(prop-1-en-2-yl)-1′,2′,3′,4′-tetrahydro-[1,1′-biphenyl]-2-ol]
[1]; BV-2, 24 h
  IC50: 59.8 ± 15.6 µM
[2]
  IC50: 71.5 ± 9.4 µM

## C#CCOc1cc(CCCCC)cc(O)c1[C@@H]1C=C(C)CC[C@H]1C(=C)C [Compound 5a, (1′R,2′R)-5′-Methyl-4-pentyl-2′-(prop-1-en-2-yl)-6-(prop-2-yn-1-yloxy)-1′,2′,3′,4′-tetrahydro-[1,1′-biphenyl]-2-ol]
[1]; BV-2, 24 h
  IC50: 99.6 ± 16.3 µM
[2]
  IC50: 65 ± 7.9 µM

## C=C(C)[C@@H]1CCC(C)=C[C@H]1c1c(O)cc(CCCCC)cc1OCC [Compound 2a, (1′ R,2′R)-6-Ethoxy-5′-methyl-4-pentyl-2′-(prop-1-en-2-yl)-1′,2′,3′,4′-tetrahydro-[1,1′-biphenyl]-2-ol]
[1]; BV-2, 24 h
  IC50: 167 ± 16.9 µM
[2]
  IC50: 176 ± 7.4 µM

## C=C(C)[C@@H]1CCC(C)=C[C@H]1c1c(O)cc(CCC)cc1O [Compound 12b, (1′R,2′R)-5′-Methyl-2′-(prop-1-en-2-yl)-4-propyl-1′,2′,3′,4′-tetra-hydro-[1,1′-biphenyl]-2,6-diol, reference compound]
[1]; BV-2, 24 h
  IC50: 5.3 ± 2.9 µM
[2]
  IC50: 18.3 ± 4.4 µM

## C=C(C)[C@@H]1CCC(C)=C[C@H]1c1c(OC)cc(CCCCC)cc1OC [Compound 1b, (1R,2R)-2′,6′-Dimethoxy-5-methyl-4′-pentyl-2-(prop-1-en-2-yl)-1,2,3,4-tetrahydro-1,1′-biphenyl]
[1]; BV-2, 24 h
  IC50: > 200 µM
[2]
  IC50: > 200 µM

## C=C(C)[C@@H]1CCC(C)=C[C@H]1c1c(O)cc(CCCC)cc1O [Compound 12c]
[1]; BV-2, 24 h
  IC50: 5 ± 3.5 µM
[2]
  IC50: 11.1 ± 2.8 µM

## C=C(C)[C@@H]1CCC(C)=C[C@H]1c1c(O)cc(CCCCC)cc1O [CBD, (1′R,2′R)-5′-Methyl-4-pentyl-2′-(prop-1-en-2-yl)-1′,2′,3′,4′-tetra-hydro-[1,1′-biphenyl]-2,6-diol, reference compound]
[3]
  naloxone-precipitated withdrawal jumps: failed to significantly alleviate
[1]; BV-2 cells, LPS 200 ng/mL, 24 h
  IC50: 12.3 ± 3.1 µM
[4]; 0.083 h
  Kp at 0.083 h: 0.864 ± 0.227
[4]; 0.25 h
  Kp at 0.25 h: 0.358 ± 0.106
[2]
  IC50: 8.5 ± 0.9 µM
[5]
  development of morphine-induced behavioral sensitization (induction period): not obvious
[6]; HEK293 transfected with CB1, forskolin-induced cAMP
  CB1 Receptor ΔEmax: 13.3 ± 0.1%
[6]; cAMP assay
  CB1 receptor activity: slight CB1/CB2 receptor activity
[7]; HEK293 transfected with CB2, forskolin-induced cAMP
  CB2 Receptor ΔEmax: 30.2 ± 0.9%
[7]; cAMP assay
  CB2 receptor activity: slight CB1/CB2 receptor activity
[8]
  LPS-induced overexpression of IL-1β mRNA: inhibited IL-1β overexpression only at 10 μM
  LPS-induced overexpression of IL-6 mRNA: failed to inhibit
  LPS-induced overexpression of TNF-α mRNA: failed to inhibit
[8]; 10 μM
  LPS-induced IL-6 mRNA expression at 10 μM: augmented
[9]; brain, mice
  AUC0→t: 66.7 ng·h/g
  AUC0→∞: 85.0 ng·h/g
  MRT: 42 min
  Tmax: 30 min
  t1/2: 30 min
[9]; male, BALB/c, mouse, brain / plasma, oral, read-out: B/P ratios within the first 3 h after administration
  Kp: < 1
[9]; male, BALB/c, mouse, brain / plasma, po, 0.5 h, read-out: B/P ratio
  Kp at 0.5 h: 0.93 ± 0.176
[9]; male, BALB/c, mouse, brain / plasma, po, 1 h, read-out: B/P ratio
  Kp at 1 h: 0.839 ± 0.144

## C=CCOc1cc(CCCCC)cc(OCC=C)c1[C@@H]1C=C(C)CC[C@H]1C(=C)C [Compound 4b, (1R,2R)-2′,6′-Bis(allyloxy)-5-methyl-4′-pentyl-2-(prop-1-en-2-yl)-1,2,3,4-tetrahy-dro-1,1′-biphenyl]
[1]; BV-2, 24 h
  IC50: > 200 µM
[2]
  IC50: > 200 µM

## C=C(C)[C@@H]1CCC(C)=C[C@H]1c1c(O)cc(C(C)n2ccnc2)cc1O (stereo partly drawn) [Compound 19c, (1′R,2′R)-4-(1-(1H-Imidazole-1-yl)ethyl)-5′-methyl-2′-(prop-1-en-2-yl)-1′,2′,3′,4′-tetrahydro-[1,1′-biphenyl]-2,6-diol]
[1]; BV-2, 24 h
  IC50: 4.4 ± 0.5 µM
[2]
  IC50: 32.6 ± 3.2 µM

## C=C(C)[C@@H]1CCC(C)=C[C@H]1c1c(O)cc(CCCCCCCC)cc1O [Compound 12g, (1′R,2′R)-5′-Methyl-4-octyl-2′-(prop-1-en-2-yl)-1′,2′,3′,4′-tetra-hydro-[1,1′-biphenyl]-2,6-diol]
[1]; BV-2, 24 h
  IC50: 174 ± 33 µM
[2]
  IC50: 26.2 ± 5.2 µM

## C=C(C)[C@@H]1CCC(C)=C[C@H]1c1c(OCC)cc(CCCCC)cc1OCC [Compound 2b, (1R,2R)-2′,6′-Diethoxy-5-methyl-4′-pentyl-2-(prop-1-en-2-yl)-1,2,3,4-tetrahydro-1,1′-biphenyl]
[1]; BV-2, 24 h
  IC50: > 200 µM
[2]
  IC50: > 200 µM

## C=C(C)[C@@H]1CCC(C)=C[C@H]1c1c(OCCC)cc(CCCCC)cc1OCCC [Compound 3b, (1R,2R)-5-Meth-yl-4′-pentyl-2-(prop-1-en-2-yl)-2′,6′-dipropoxy-1,2,3,4-tetrahydro-1,1′-biphenyl]
[1]; BV-2, 24 h
  IC50: > 200 µM
[2]
  IC50: > 200 µM

## C#CCOc1cc(CCCCC)cc(OCC#C)c1[C@@H]1C=C(C)CC[C@H]1C(=C)C [Compound 5b, (1R,2R)-5-Methyl-4′-pentyl-2-(prop-1-en-2-yl)-2′,6′-bis(prop-2-yn-1-yloxy)-1,2,3,4-tetrahydro-1,1′-biphenyl]
[1]; BV-2, 24 h
  IC50: > 200 µM
[2]
  IC50: > 200 µM

## C=C(C)[C@@H]1CCC(C)=C[C@H]1c1c(O)cc(CCCCCCCCCCCC)cc1O [Compound 12h, (1′R,2′R)-4-Dodecyl-5′-methyl-2′-(prop-1-en-2-yl)-1′,2′,3′,4′-tet-rahydro-[1,1′-biphenyl]-2,6-diol]
[1]; BV-2, 24 h
  IC50: > 200 µM
[2]
  IC50: > 200 µM

## C=C(C)[C@@H]1CCC(C)=C[C@H]1c1c(O)cc(CCCCC)cc1OCCC [Compound 3a, (1′R,2′R)-5′-Methyl-4-pentyl-2′-(prop-1-en-2-yl)-6-propoxy-1′,2′,3′,4′-tetrahydro-[1,1′-biphenyl]-2-ol]
[1]; BV-2, 24 h
  IC50: > 200 µM
[2]
  IC50: > 200 µM

## C=C(C)[C@@H]1CCC(C)=C[C@H]1c1c(O)cc(CCCCCCC)cc1O [Compound 12f, (1′R,2′R)-4-Heptyl-5′-methyl-2′-(prop-1-en-2-yl)-1′,2′,3′,4′-tetra-hydro-[1,1′-biphenyl]-2,6-diol]
[1]; BV-2, 24 h
  IC50: 42 ± 9.3 µM
[2]
  IC50: 14.1 ± 0.7 µM

## C=C(C)[C@@H]1CCC(C)=C[C@H]1c1c(O)cc(CCCCCC)cc1O [Compound 12e, (1′R,2′R)-4-Hexyl-5′-methyl-2′-(prop-1-en-2-yl)-1′,2′,3′,4′-tetra-hydro-[1,1′-biphenyl]-2,6-diol]
[1]; BV-2, 24 h
  IC50: 2.1 ± 0.4 µM
[2]
  IC50: 19 ± 0.5 µM

## C=C(C)[C@@H]1CCC(C)=C[C@H]1c1c(O)cc(CC)cc1O [Compound 12a, (1′R,2′R)-4-Ethyl-5′-methyl-2′-(prop-1-en-2-yl)-1′,2′,3′,4′-tetra-hydro-[1,1′-biphenyl]-2,6-diol]
[1]; BV-2, 24 h
  IC50: 2.5 ± 0.3 µM
[2]
  IC50: 22.6 ± 1.6 µM
